Experimental data as given in ChEMBL document CHEMBL3286108, “Novel arylsulfonamide derivatives with 5-HT₆/5-HT₇ receptor antagonism targeting behavioral and psychological symptoms of dementia” (J Med Chem, 2014).

Assays:
[1] = target: 5-hydroxytryptamine receptor 7 (Homo sapiens, UniProt P34969); assay: biochemical; assay type: cell-based, CHO-K1
[2] = target: 5-hydroxytryptamine receptor 2A (Homo sapiens, UniProt P28223); assay: biochemical; assay type: cell-based, CHO-K1
[3] = target: T1, Muscarinic acetylcholine receptor M1 (Homo sapiens) (UniProt P11229); assay: Displacement of [3H]pirenzepine from human recombinant M1 receptor expressed in CHO cells at 1 uM; assay type: cell-based
T1 sequence (whole entry): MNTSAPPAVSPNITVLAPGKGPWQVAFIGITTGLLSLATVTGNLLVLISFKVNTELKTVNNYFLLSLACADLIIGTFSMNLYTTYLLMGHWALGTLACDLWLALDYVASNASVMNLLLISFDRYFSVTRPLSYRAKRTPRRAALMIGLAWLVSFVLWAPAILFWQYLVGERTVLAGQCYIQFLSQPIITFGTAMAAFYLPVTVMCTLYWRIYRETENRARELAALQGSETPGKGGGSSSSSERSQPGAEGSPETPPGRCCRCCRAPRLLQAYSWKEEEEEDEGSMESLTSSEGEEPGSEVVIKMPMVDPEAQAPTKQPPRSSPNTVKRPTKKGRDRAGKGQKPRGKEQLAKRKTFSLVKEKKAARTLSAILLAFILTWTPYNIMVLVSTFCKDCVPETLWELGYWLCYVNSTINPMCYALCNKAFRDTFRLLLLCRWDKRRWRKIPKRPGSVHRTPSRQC

[4] = target: hERG (KCNH2) potassium channel (Homo sapiens, UniProt Q12809); assay: in vitro; details: CHO cells expressing human cloned ERG
[5] = target: 5-hydroxytryptamine receptor 6 (Homo sapiens, UniProt P50406); assay: biochemical
D(2) dopamine receptor = D(2) dopamine receptor (Homo sapiens, UniProt P14416); assay: biochemical
Chain of D(2) dopamine receptor (P14416 whole entry): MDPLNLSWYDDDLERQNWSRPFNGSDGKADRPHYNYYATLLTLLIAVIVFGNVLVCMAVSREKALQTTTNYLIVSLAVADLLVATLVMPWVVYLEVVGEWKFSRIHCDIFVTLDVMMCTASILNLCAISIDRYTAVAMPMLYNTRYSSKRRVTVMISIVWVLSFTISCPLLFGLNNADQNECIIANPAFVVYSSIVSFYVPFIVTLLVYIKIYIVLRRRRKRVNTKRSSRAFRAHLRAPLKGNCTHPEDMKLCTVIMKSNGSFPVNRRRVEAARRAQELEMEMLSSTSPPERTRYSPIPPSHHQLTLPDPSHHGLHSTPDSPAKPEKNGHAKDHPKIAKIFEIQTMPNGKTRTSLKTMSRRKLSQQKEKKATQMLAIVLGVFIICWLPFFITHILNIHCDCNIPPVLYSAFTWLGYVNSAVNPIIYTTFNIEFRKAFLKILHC

Chain of hERG (KCNH2) potassium channel (Q12809 whole entry): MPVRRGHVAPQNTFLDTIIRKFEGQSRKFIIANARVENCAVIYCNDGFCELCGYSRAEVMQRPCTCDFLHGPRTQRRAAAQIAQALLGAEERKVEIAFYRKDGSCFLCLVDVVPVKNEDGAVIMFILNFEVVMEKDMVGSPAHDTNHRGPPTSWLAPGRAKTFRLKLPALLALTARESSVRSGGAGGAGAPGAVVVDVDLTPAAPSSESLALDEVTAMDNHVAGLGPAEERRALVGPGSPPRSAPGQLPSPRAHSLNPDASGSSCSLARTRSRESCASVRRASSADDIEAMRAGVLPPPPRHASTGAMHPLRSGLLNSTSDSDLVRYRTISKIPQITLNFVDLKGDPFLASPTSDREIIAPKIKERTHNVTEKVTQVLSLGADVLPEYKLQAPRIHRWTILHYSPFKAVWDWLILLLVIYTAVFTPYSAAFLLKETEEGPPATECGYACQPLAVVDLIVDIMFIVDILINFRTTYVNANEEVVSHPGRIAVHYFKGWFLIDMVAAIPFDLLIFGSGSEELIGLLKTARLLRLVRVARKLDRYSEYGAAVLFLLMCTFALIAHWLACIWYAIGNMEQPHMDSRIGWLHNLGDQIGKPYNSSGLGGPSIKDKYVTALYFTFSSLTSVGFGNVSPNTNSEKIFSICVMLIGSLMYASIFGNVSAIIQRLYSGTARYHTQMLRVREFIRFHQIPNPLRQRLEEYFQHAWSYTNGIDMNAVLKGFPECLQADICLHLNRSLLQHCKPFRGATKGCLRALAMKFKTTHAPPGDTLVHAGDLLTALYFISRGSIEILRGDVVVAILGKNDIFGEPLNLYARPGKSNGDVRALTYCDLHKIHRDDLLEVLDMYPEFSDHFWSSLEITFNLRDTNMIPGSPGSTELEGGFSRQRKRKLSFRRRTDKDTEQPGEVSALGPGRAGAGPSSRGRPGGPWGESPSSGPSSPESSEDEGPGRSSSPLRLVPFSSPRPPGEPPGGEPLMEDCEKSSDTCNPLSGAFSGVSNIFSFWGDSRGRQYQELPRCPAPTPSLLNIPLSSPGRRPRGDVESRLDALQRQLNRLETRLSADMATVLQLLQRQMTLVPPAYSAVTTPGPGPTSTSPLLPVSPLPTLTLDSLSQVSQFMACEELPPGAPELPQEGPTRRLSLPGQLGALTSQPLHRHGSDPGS
Chain of 5-hydroxytryptamine receptor 7 (P34969 whole entry): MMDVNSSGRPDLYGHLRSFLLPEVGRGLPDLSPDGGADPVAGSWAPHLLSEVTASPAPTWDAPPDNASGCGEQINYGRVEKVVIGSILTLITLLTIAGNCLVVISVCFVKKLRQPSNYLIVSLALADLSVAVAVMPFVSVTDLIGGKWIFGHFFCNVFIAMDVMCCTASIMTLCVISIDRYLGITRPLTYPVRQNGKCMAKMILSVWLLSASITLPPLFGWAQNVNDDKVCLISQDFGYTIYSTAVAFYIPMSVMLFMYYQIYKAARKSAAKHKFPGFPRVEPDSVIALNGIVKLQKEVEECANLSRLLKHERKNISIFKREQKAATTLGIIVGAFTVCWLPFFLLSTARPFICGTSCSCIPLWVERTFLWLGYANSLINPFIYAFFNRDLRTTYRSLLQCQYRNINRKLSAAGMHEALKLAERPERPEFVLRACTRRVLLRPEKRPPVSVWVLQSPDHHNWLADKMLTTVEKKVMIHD
Chain of 5-hydroxytryptamine receptor 2A (P28223 whole entry): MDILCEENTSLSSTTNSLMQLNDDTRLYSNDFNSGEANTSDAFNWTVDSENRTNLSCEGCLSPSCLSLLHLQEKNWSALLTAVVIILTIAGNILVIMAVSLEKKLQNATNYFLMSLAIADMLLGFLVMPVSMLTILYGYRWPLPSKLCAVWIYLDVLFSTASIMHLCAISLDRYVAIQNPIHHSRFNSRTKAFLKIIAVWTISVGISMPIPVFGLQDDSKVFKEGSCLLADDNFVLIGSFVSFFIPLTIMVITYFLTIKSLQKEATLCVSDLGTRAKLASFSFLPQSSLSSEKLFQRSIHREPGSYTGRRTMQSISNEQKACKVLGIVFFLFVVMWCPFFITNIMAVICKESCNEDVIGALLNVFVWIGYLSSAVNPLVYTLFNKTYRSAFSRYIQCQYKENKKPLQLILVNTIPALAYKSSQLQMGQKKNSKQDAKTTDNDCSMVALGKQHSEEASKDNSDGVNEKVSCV
Chain of 5-hydroxytryptamine receptor 6 (P50406 whole entry): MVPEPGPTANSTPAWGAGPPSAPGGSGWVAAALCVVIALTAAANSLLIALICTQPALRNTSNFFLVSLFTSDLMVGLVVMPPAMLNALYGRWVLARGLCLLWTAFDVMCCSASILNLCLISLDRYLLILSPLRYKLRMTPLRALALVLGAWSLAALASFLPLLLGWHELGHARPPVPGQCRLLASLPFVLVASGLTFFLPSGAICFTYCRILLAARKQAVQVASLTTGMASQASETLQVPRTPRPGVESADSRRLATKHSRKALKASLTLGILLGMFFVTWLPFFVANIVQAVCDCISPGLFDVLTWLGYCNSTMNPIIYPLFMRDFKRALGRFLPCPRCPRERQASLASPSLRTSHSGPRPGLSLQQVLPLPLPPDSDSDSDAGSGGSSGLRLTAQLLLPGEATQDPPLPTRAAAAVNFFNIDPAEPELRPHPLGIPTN

Compound | Ki [1] [nM] | Ki [2] [nM] | inhibition [3] [%] | Ki [5] [nM] | Ki (D(2) dopamine receptor) [nM] | inhibition at 1 µM [4] [%]
O=S(=O)(NCCCN1CCC(c2noc3cc(F)ccc23)CC1)c1cc2ccccc2s1 | 4.1 | 0.9 | 13 | 40 | 11 | 34
O=S(=O)(NCCCCN1CCN(c2nsc3ccccc23)CC1)c1ccc(F)c(Cl)c1 | 5.3 | 15 | -10 | 53 | 39 | 29
O=S(=O)(NCCCN1CCC(c2noc3cc(F)ccc23)CC1)c1ccc2cc(Cl)ccc2c1 | 18 | 3.1 | -7 | 26 | 23 | 28
O=S(=O)(NCCCN1CCN(c2nsc3ccccc23)CC1)c1cnc2ccccn12 | 6.3 | 12 | 2 | 84 | 26 | 6
O=S(=O)(NCCCCN1CCC(c2noc3cc(F)ccc23)CC1)c1ccc(F)c(Cl)c1 | 4.4 | 9 | 18 | 48 | 26 | 90
Cc1c(S(=O)(=O)NCCCN2CCN(c3noc4ccccc34)CC2)sc2ccc(F)cc12 | 200 | 1200 |  | > 10000 | > 10000 | 15
O=S(=O)(NCCCN1CCN(c2nsc3ccccc23)CC1)c1ccc(Cl)c(Cl)c1 | 20 | 25 |  | 15 | 7.8 | 21
Cc1cccc(S(=O)(=O)NCCCCN2CCC(c3noc4cc(F)ccc34)CC2)c1 | 1.5 | 2.1 | 11 | 140 | 17 | 57
O=S(=O)(NCCCN1CCN(c2nsc3ccccc23)CC1)c1ccc(F)c(Cl)c1 | 9.5 | 14 |  | 5.1 | 37 | 36
O=S(=O)(NCCCN1CCC(c2noc3cc(F)ccc23)CC1)c1cccc2ccccc12 | 0.5 | 1.7 | -9 | 83 | 4 | 27
O=S(=O)(NCCCCN1CCN(c2nsc3ccccc23)CC1)c1ccc(OC(F)(F)F)cc1 | 19 | 2.2 |  | 47 | 48 | 20
O=S(=O)(NCCCCN1CCC(c2noc3cc(F)ccc23)CC1)c1cnc2ccccn12 | 14 | 9.5 | 37 | 100 | > 1000 | 47
O=S(=O)(NCCCN1CCN(c2nsc3ccccc23)CC1)c1ccc(OC(F)(F)F)cc1 | 29 | 9.5 |  | 56 | 27 | 50
O=S(=O)(NCCCCN1CCN(c2nsc3ccccc23)CC1)c1cnc2ccccn12 | 4.1 | 8.1 | 6 | 140 | 46 | 17
O=S(=O)(NCCCCN1CCN(c2nsc3ccccc23)CC1)c1cccc2scnc12 | 3.4 | 7.5 | 0 | 120 | 16 | 34
Cc1cccc(S(=O)(=O)NCCN2CCN(c3nsc4ccccc34)CC2)c1 | 3.8 | 8.8 |  | 430 | 43 | 4
O=S(=O)(NCCCN1CCC(c2noc3cc(F)ccc23)CC1)c1cc2ccc(Cl)cc2s1 | 34 | 2.6 | -8 | 44 | 27 | 20
Cc1cccc(S(=O)(=O)NCCCN2CCN(c3nsc4ccccc34)CC2)c1 | 1.7 | 1.3 |  | 22 | 13 | 14
O=S(=O)(NCCCN1CCC(c2noc3cc(F)ccc23)CC1)c1cnc2ccccn12 | 3.2 | 6.5 | -4 | 100 | 15 | 28
Cc1c(S(=O)(=O)NCCCCN2CCN(c3nsc4ccccc34)CC2)sc2ccc(F)cc12 | 4.6 | 6.5 | 10 | 54 | 44 | 5
O=S(=O)(NCCCCN1CCC(c2noc3cc(F)ccc23)CC1)c1cccs1 | 6.3 | 9.5 | 24 | 130 | > 1000 | 53
O=S(=O)(NCCCN1CCC(c2noc3cc(F)ccc23)CC1)c1cccs1 | 0.9 | 5.1 |  | 66 | 8.7 | 53
O=S(=O)(NCCCN1CCN(c2nsc3ccccc23)CC1)c1cc2ccccc2s1 | 13 | 11 |  | 63 | 48 | 12
O=S(=O)(NCCN1CCC(c2noc3cc(F)ccc23)CC1)c1cccc2ccccc12 | 1.3 | 0.7 | -8 | 250 | 9.1 | 0
O=S(=O)(NCCCN1CCC(c2noc3cc(F)ccc23)CC1)c1ccc(OC(F)(F)F)cc1 | 8.8 | 3.8 |  | 35 | 33 | 87
O=S(=O)(NCCCN1CCN(c2nsc3ccccc23)CC1)c1cccs1 | 23 | 9.1 |  | 140 | 56 | 33
O=S(=O)(NCCCCN1CCC(c2noc3cc(F)ccc23)CC1)c1cccc2scnc12 | 13 | 8.5 |  | 70 | 25 | 69
O=S(=O)(NCCCN1CCN(c2nsc3ccccc23)CC1)c1cc2ccc(Cl)cc2s1 | 54 | 9.5 | -6 | 110 |  | 0

Further lines, with some results ahead:

Ki [1] [nM] | Ki [2] [nM] | inhibition [3] [%] | Ki [5] [nM] | Ki (D(2) dopamine receptor) [nM] | Compound | inhibition at 1 µM [4] [%]
270 | 210 |  | 4800 | 400 | O=S(=O)(NCCCCN1CCN(c2noc3ccccc23)CC1)c1ccc(OC(F)(F)F)cc1 | 24
9.9 | 98 | 2 | 330 | > 10000 | O=S(=O)(NCCCN1CCN(c2noc3ccccc23)CC1)c1ccc(F)c(Cl)c1 | 33
57 | 6100 |  | > 10000 | 170 | O=S(=O)(NCCCCN1CCN(c2noc3ccccc23)CC1)c1cccc2scnc12 | 26
1.5 | 10 | 0 | 40 | 2.2 | O=S(=O)(NCCCN1CCN(c2nsc3ccccc23)CC1)c1ccc2ccccc2c1 | 13
33 | 8.1 |  | 61 | 49 | O=S(=O)(NCCCCN1CCN(c2nsc3ccccc23)CC1)c1ccc2cc(Cl)ccc2c1 | 12
120 | 110 | -5 | 1600 | 7200 | O=S(=O)(NCCCN1CCN(c2noc3ccccc23)CC1)c1ccc2ccccc2c1 | 29
0.1 | 17 | 6 | 27 | 77 | O=S(=O)(NCCCCN1CCN(c2noc3ccccc23)CC1)c1ccc(F)c(Cl)c1 | 45
41 | 3300 | -2 | > 10000 | > 10000 | O=S(=O)(NCCCN1CCN(c2noc3ccccc23)CC1)c1cccc2scnc12 | 17
94 | 970 | 4 | > 10000 |  | O=S(=O)(NCCCN1CCN(c2noc3ccccc23)CC1)c1cccs1 | 18
150 | 410 | 14 | 35 | 15 | O=S(=O)(NCCCN1CCN(c2noc3ccccc23)CC1)c1cc2ccccc2s1 | 21
10 | 4200 |  | 1500 | 2000 | Cc1cccc(S(=O)(=O)NCCCN2CCN(c3noc4ccccc34)CC2)c1 | 8
0.7 | 10 |  | 29 | 57 | O=S(=O)(NCCCCN1CCN(c2noc3ccccc23)CC1)c1ccc(Cl)c(Cl)c1 | 24
1.5 | 0.9 |  | 680 | 18 | O=S(=O)(NCCN1CCN(c2nsc3ccccc23)CC1)c1ccc2ccccc2c1 | 0
6.7 | 7.7 |  | 18 | 51 | O=S(=O)(NCCCCN1CCN(c2noc3ccccc23)CC1)c1ccc2cc(Cl)ccc2c1 | 9
